Patent publication US20100048545A1, “Compounds and Compositions for Use in the Prevention and Treatment of Disorders of Fat Metabolism and Obesity” (INNODIA INC., priority 2006, published 2010)

Legend:
[1] = tested on: Sprague-Dawley rats; test: 13-week oral toxicity study: body weight and lipid profiles of SD rats fed regular chow; type: in vivo
Method: Sprague-Dawley rats were received at 7-12 weeks of age (225-300 g). […] The control group received vehicle (water) alone. Body weights were recorded once prior to group assignment, and approximately one week prior to initiation of treatment. Then, body weights were recorded for all animals up to 1 day prior to dosing and weekly thereafter during the treatment period. At the end of the treatment period, a blood sample was withdrawn to measure plasma triglyceride and cholesterol levels.

[2] = tested on: Agouti mice; test: Weight gain and food consumption in Agouti mice, 21 days; type: in vivo; conditions: 50 or 100 mg/kg orally twice daily
Method: Agouti mice, which are obese, diabetic and leptin resistant, were treated orally twice daily with 50 or 100 mg/kg of 4-[…] for 21 consecutive days. Body weight and food consumption were measured daily.

[3] = tested on: Diet Induced Obesity (DIO)-Mice; type: in vivo
Method: A total of 40 animals were used in the study. The animals were distributed into 5 groups (4 treated, 1 control group, all on high fat diet). Each group was composed of 8 animals.
4-OH was aliquoted and kept at 4° C. […] Mice from groups 4 and 5 were treated twice daily with 50 and 100 mg/kg of compound 65a. All groups were treated by oral gavage. Treatment commenced on Day 0 and ended on Day 7 (FIG. 37A). Body weights were measured daily.

[4] = tested on: FABP4/ap2; test: RT-PCR gene expression in adipocytes of treated rats: FABP4/ap2; type: in vivo
Method: (§1) As the ex vivo studies on adipocytes indicated the lipolytic effect of drug was due to chronic exposure (see previous example), a role in gene regulation was assessed. RT-PCR was used to assess the expression of genes in the adipocytes from treated and control animals.

[5] = tested on: HSL; test: RT-PCR gene expression in adipocytes of treated rats: HSL; type: in vivo
Method: as §1

[6] = tested on: wistar obese rats; test: Reversal of weight gain in rat model of diet-induced obesity, 28 days; conditions: 100 mg/kg twice daily oral
Source text: The aim of this study was to evaluate the effect of chronic administration of 4-hydroxyisoleucine (4-OH, Compound 14a) on food consumption, tissue weight, and body weight gain of wistar obese rats.
A total of 30 animals were used in the study. The animals were acclimated for 1 week and fed standard chow. The animals were randomized into 3 groups of 10 animals each. Two groups were fed a high fat, high sucrose diet (HFHS), and 1 untreated control group was fed standard chow over a 28 day period. Animals were housed separately and food consumption was monitored daily.
In the following period of 28 days, the feeding regimen remained the same for the 3 groups; however, 1 group fed HFHS was treated with twice daily oral administration of 4-OH at 100 mg/kg per dose. For the 28 days of treatment, 4-OH was dissolved in reverse osmosis water, aliquoted, and kept at 4° C. Untreated animals received water twice daily.

[7] = tested on: lean mice subjected to a high fat diet; test: Prevention of obesity in lean mice subjected to a high fat diet, 21 days; type: in vivo, C57BL/6 mice; conditions: for transient increase of caloric intake: HFD
Source text: C57BL/6 mice were fed a standard chow (LabDiet #5001; 12% of calories from fat) upon arrival and during the acclimation and pre-treatment periods. […] Treatment was initiated on the first day of experimentation (Day 1) and lasted 21 days. Animals from group 1 were fed the standard chow for the duration of the study and received water orally twice daily (ND: normal diet control). Mice from group 2 were given the high fat diet (HFD; 60% of calories from fat) starting on day 1 of experimentation and until day 21 of the study. These mice also received water by oral gavage and served as the high fat diet control (ND→HFD). Mice from group 3 and 4 were also fed the high fat diet upon start of treatment on day 1 and for the duration of the study but were treated orally twice daily with 100 and 150 mg/kg of 4-OH. From day 1 to day 21 of the study, body weight and food consumption were measured daily.

[8] = tested on: dietary obese rat model; test: Energy balance (VO2, respiratory quotient) in dietary obese rat model, prevention and reversal studies; type: in vivo, male Wistar rats
Method: The effect of 4-OH on energy balance was assessed in the dietary obese rat model. In these studies, male Wistar rats were administered a high fat/high sucrose diet (65.4% fat) and treated chronically with 4-OH. Each study consisted of 4 groups of animals. The groups studied were normal chow fed rats, rats fed a high fat/high sucrose diet and rats fed a high fat high sucrose diet and orally administered 4-OH at 100 mg/kg twice per day. These three groups had access to food ad libitum throughout the study. A fourth group fed the same number of Kcal (or similar energy intake) as the 4-OH group was also included to investigate drug effects that may occur in addition to changes in food intake. Two studies were performed: one to determine whether 4-OH could prevent the development of obesity (prevention study) and the other to determine whether 4-OH could reverse established obesity (reversal study). In the prevention study, male Wistar rats were administered the high fat/high sucrose diet for 5 weeks. During the first week of diet administration, the rats were adapted to receiving increasing doses of 4-OH. In the reversal of obesity study, the animals were first made obese by feeding the high fat/high sucrose diet for 28 days. This feeding regime continued for the duration of the study. After the period of obesity induction, the rats were also adapted to receiving increasing doses of 4-OH during a one week period. After the adaptation period, 4-OH was orally administered at a dose of 100 mg/kg twice per day for the following 4 week period in both treatment protocols. The ability of 4-OH to influence energy expenditure was determined by indirect calorimetry. On the 21st day of both the prevention and reversal studies, rats were placed into metabolic cages and energy expenditure was assessed by determining oxygen consumption. The effect of 4-OH on oxygen consumption during the day/night cycle on Day 21 of both the prevention and reversal of obesity studies is shown in FIGS. 27A and 27B. The respiratory quotient (RQ) was calculated in these studies from both the quantity of oxygen consumed and the quantity of carbon dioxide produced while the animals were present in the metabolic chambers. A RQ of 1 is indicative that the animals are burning pure carbohydrate as the energy source.

[9] = 100, 200, 400 mg/kg/day, Day 92
[10] = HFHS diet, treated for 4 weeks (28 days)

C[C@@H]([C@H](C)O)[C@H](N)C(=O)O [Compound 14a, (2S,3R,4S)-4-Hydroxyisoleucine]
average body weight at end of treatment, male rats ([1]; 200 mg/kg/day, 13 weeks): 527 g
average body weight at end of treatment, male rats ([1]; 400 mg/kg/day, 13 weeks): 520 g
reduction of triglycerides, significance ([1]; 400 mg/kg/day, male rats): statistically significant
cholesterol levels, male rats [1, 9]: reduced in a dose-dependant manner
triglyceride levels, male rats [1, 9]: reduced in a dose-dependant manner
body weight, male rats ([1]; 200 and 400 mg/kg/day once daily oral, 13 weeks, vs control): clear reduction of body weight compared to control rats
reduction of cholesterol, significance ([1]; 200 and 400 mg/kg/day, male rats): statistically significant
food intake [2]: little effect on food intake
body weight gain ([2]; vs vehicle): significant decrease of body weight gain
tolerability of treatment ([3]; 50 and 100 mg/kg twice daily oral gavage, one week): well tolerated
weight gain ([3]; 50 and 100 mg/kg twice daily, first week of treatment): moderation of weight gain was observed
food consumption ([3]; first week of treatment): slight decrease in food consumption
expression of FABP4/ap2, increase [4]: 1.3-1.4 times
Increase (x times) in expression of FABP4/ap2 [4, 10]: 1.4 x times
expression of hormone sensitive lipase (HSL), increase [5]: 1.3-1.4 times
Increase (x times) in expression of HSL [5, 10]: 1.3 x times
epididymal and peri-renal adipose tissue [6]: reduction of epididymal and peri-renal adipose tissue
food consumption [6]: reduction in food consumption
muscle, brown fat, and organ weight [6]: not affected
tolerability of treatment ([6]; after 28 days HFHS): well tolerated
weight gain ([6]; after 28 days HFHS): reversal of weight gain
weight gain ([6]; after 28 days HFHS, listed as 4-OH): Moderation of weight gain was observed
transient increase of caloric intake ([7]; 100 mg/kg): less pronounced
transient increase of caloric intake ([7]; 150 mg/kg): completely abolished this increase of caloric intake
caloric intake ([7]; 150 mg/kg, day 2 to day 6 of treatment): even lower than mice fed the standard chow
weight gain induced by high fat feeding ([7]; 100 and 150 mg/kg orally twice daily, 21 days): completely prevented
epididymal fat weight ([7]; 100 and 150 mg/kg, after 21 days, p<0.01): prevented significantly the increase of weight of the epididymal fat
body weight compared to ND mice ([7]; highest dose (150 mg/kg), high fat diet): decreased body weight compared to mice fed the standard chow
respiratory quotient, night phase ([8]; 100 mg/kg twice per day): not reduced
oxygen consumption per kg of body weight, night phase ([8]; 100 mg/kg twice per day, Day 21): significantly enhanced relative to both the pair fed and control groups of animals
oxygen consumption (VO2), light phase ([8]; 100 mg/kg twice per day, Day 21, prevention and reversal studies): essentially identical
respiratory quotient (fuel source), day phase ([8]; 100 mg/kg twice per day, vs pair fed animals): burn proportionally more fat than pair fed animals
VO2 expressed per rat ([8]; 100 mg/kg twice per day, vs pair fed control groups): greater
respiratory quotient (fuel source), day phase ([8]; reversal study, vs pair fed and vehicle treated animals): proportionally more fat than both the pair fed and vehicle treated animals
